Experimental data from the NIST ThermoML archive (doi:10.1016/j.jct.2005.04.005).
± gives the expanded uncertainty stated by the source.

Test: mn = molality of the nth substance listed, in mol/kg
Settings: 101 kPa, Liquid

C1COCCOCCOCCOCCOCCO1 [1,4,7,10,13,16-hexaoxacyclooctadecane] + O
Settings	mass density, 293.15 K [kg/m3]	mass density, 295.15 K [kg/m3]	mass density, 297.15 K [kg/m3]	mass density, 298.15 K [kg/m3]	mass density, 299.15 K [kg/m3]	mass density, 301.15 K [kg/m3]	mass density, 303.15 K [kg/m3]	mass density, 308.15 K [kg/m3]	mass density, 313.15 K [kg/m3]	speed of sound, 298.15 K [m/s]
m1 = 0.0001	–	–	–	997.047 ± 0.6	–	–	–	–	–	–
m1 = 0.09578	1002.26 ± 0.6	1001.8 ± 0.6	1001.29 ± 0.6	1000.98 ± 0.6	1000.71 ± 0.6	1000.12 ± 0.6	999.519 ± 0.6	997.836 ± 0.6	995.959 ± 0.61	–
m1 = 0.0958	–	–	–	1000.98 ± 0.6	–	–	–	–	–	1512.5 ± 2.2
m1 = 0.1953	1006.34 ± 0.62	1005.85 ± 0.61	1005.3 ± 0.61	1004.95 ± 0.61	1004.66 ± 0.61	1004.02 ± 0.61	1003.4 ± 0.61	1001.65 ± 0.6	999.701 ± 0.6	1527.2 ± 2.2
m1 = 0.4197	1015.08 ± 0.64	1014.51 ± 0.64	1013.88 ± 0.64	1013.44 ± 0.64	1013.12 ± 0.64	1012.39 ± 0.63	1011.69 ± 0.63	1009.76 ± 0.62	1007.65 ± 0.62	1557.3 ± 2.3
m1 = 0.5091	1018.38 ± 0.65	1017.79 ± 0.65	1017.12 ± 0.65	1016.66 ± 0.64	1016.33 ± 0.64	1015.56 ± 0.64	1014.82 ± 0.64	1012.82 ± 0.63	1010.65 ± 0.63	1568.3 ± 2.3
m1 = 0.6046	1021.8 ± 0.66	1021.17 ± 0.66	1020.48 ± 0.66	1019.99 ± 0.65	1019.64 ± 0.65	1018.84 ± 0.65	1018.06 ± 0.65	1015.99 ± 0.64	1013.74 ± 0.64	1579.6 ± 2.3
m1 = 0.7192	1025.77 ± 0.67	1025.1 ± 0.67	1024.37 ± 0.67	1023.86 ± 0.67	1023.49 ± 0.66	1022.65 ± 0.66	1021.82 ± 0.66	1019.66 ± 0.65	1017.33 ± 0.65	1592.7 ± 2.3
m1 = 0.8244	1029.28 ± 0.68	1028.57 ± 0.68	1027.8 ± 0.68	1027.28 ± 0.68	1026.89 ± 0.67	1026.01 ± 0.67	1025.14 ± 0.67	1022.9 ± 0.66	1020.49 ± 0.66	1604.2 ± 2.3
m1 = 0.9881	1034.49 ± 0.7	1033.73 ± 0.69	1032.91 ± 0.69	1032.37 ± 0.69	1031.95 ± 0.69	1031.02 ± 0.69	1030.1 ± 0.68	1027.73 ± 0.68	1025.21 ± 0.67	1621.4 ± 2.3
m1 = 1.13	1038.8 ± 0.71	1037.98 ± 0.71	1037.12 ± 0.7	1036.57 ± 0.7	1036.13 ± 0.7	1035.15 ± 0.7	1034.18 ± 0.7	1031.7 ± 0.69	1029.09 ± 0.68	1635.5 ± 2.3
m1 = 1.296	1043.56 ± 0.72	1042.68 ± 0.72	1041.78 ± 0.72	1041.22 ± 0.72	1040.75 ± 0.72	1039.72 ± 0.71	1038.71 ± 0.71	1036.12 ± 0.7	1033.4 ± 0.69	1651.2 ± 2.3
m1 = 1.484	1048.63 ± 0.74	1047.68 ± 0.74	1046.73 ± 0.73	1046.16 ± 0.73	1045.66 ± 0.73	1044.59 ± 0.73	1043.54 ± 0.72	1040.81 ± 0.72	1037.98 ± 0.71	1667.6 ± 2.4
m1 = 1.643	1052.69 ± 0.75	1051.69 ± 0.75	1050.69 ± 0.75	1050.12 ± 0.74	1049.6 ± 0.74	1048.48 ± 0.74	1047.4 ± 0.74	1044.56 ± 0.73	1041.64 ± 0.72	1680.3 ± 2.4
m1 = 2.189	1064.99 ± 0.79	1063.83 ± 0.79	1062.7 ± 0.79	1062.06 ± 0.78	1061.5 ± 0.78	1060.24 ± 0.78	1059.05 ± 0.77	1055.88 ± 0.76	1052.65 ± 0.75	1714.6 ± 2.4
m1 = 2.803	1076.32 ± 0.83	1075.11 ± 0.83	1073.77 ± 0.82	1073.02 ± 0.82	1072.41 ± 0.82	1071.01 ± 0.81	1069.62 ± 0.81	1066.1 ± 0.8	1062.5 ± 0.79	1742.3 ± 2.4
